# Experimental data taken from patent US9849435B2, “Maleic anhydride polymer-stabilized microcapsules” (Firmenich SA, priority 2013, dated 2017).
# Key:
# Oil properties: Log P = type: physicochemical; settings: oil ingredient
# [1] = Oil properties: volatility; type: physicochemical; settings: oil ingredient
SMILES,Log P (Oil properties: Log P),Volatility [1] [µg/L],logP (Oil properties: Log P)
C/C=C/C(=O)C1C(C)C=CCC1(C)C (centres unmarked) [Delta-Damascone],4.16,371,–
C=CC(C)CCCC(C)(C)O (centres unmarked) [Dihydromycenol],3.47,1391,–
C=C(C)[C@H]1CC=C(C)CC1 [Limonene],4.38,14183,–

# The remaining lines, values ahead:
Log P (Oil properties: Log P),Volatility [1] [µg/L],logP (Oil properties: Log P),SMILES
–,–,1.52,OCCc1ccccc1 [Phenylethyl Alcohol]
3.012,–,–,CC(=O)/C=C/C1=C(C)CCCC1(C)C [β-Ionone]
